Laboratory results: ChEMBL document CHEMBL5550206, “Identification of 6-Fluorine-Substituted Coumarin Analogues as POLRMT Inhibitors with High Potency and Safety for Treatment of Pancreatic Cancer” (J Med Chem, 2024)
Active and inactive are the calls of the source. No cut-off for these calls is given here.

Columns and labels:
MIA PaCa-2 [1] = test: In vivo antitumor activity against human MIA PaCa-2 cells xenografted in BALB/c mouse assessed as reduction in tumor weight at 25 mg/kg, iv once daily for 25 consecutive day after 2 weeks of cells injection relative to control; format: functional; settings: MIA PaCa-2, 600 h, time 25 day
MIA PaCa-2 [2] = test: Induction of cell arrest in human MIA PaCa-2 cells assessed as necrotic cells at 100 nM measured after 4 days by Annexin V-FITC and propidium iodide (PI) staining based assay (reference value: 0.82%); format: functional; settings: time 4 day
MIA PaCa-2 [3] = test: Inhibition of colony formation in human MIA PaCa-2 cells at 5 to 200 nM incubated for 14 days by crystal violet staining based assay; format: functional, cell-based; settings: dose 5-200 nM, time 14.0 day
MIA PaCa-2 [4] = test: Induction of cell arrest in human MIA PaCa-2 cells assessed as necrotic cells at 500 nM measured after 4 days by Annexin V-FITC and propidium iodide (PI) staining based assay (reference value: 0.82%); format: functional; settings: time 4 day
MIA PaCa-2 [5] = test: Induction of cell arrest in human MIA PaCa-2 cells assessed as late apoptotic cells at 200 nM measured after 4 days by Annexin V-FITC and propidium iodide (PI) staining based assay (reference value: 3.23%); format: functional; settings: time 4 day
MIA PaCa-2 [6] = test: Induction of cell arrest in human MIA PaCa-2 cells assessed as accumulation of cells at G1 phase at 200 nM measured after 96 hrs by PI staining based flow cytometry (reference value: 64%); format: functional
MIA PaCa-2 [7] = test: Induction of cell arrest in human MIA PaCa-2 cells assessed as viable cells at 50 nM measured after 4 days by Annexin V-FITC and propidium iodide (PI) staining based assay (reference value: 94.9%); format: functional; settings: MIA PaCa-2, 96 h, time 4 day, read-out: Activity
MIA PaCa-2 [8] = test: Induction of cell arrest in human MIA PaCa-2 cells assessed as early apoptotic cells at 25 nM measured after 4 days by Annexin V-FITC and propidium iodide (PI) staining based assay (reference value: 1.07%); format: functional; settings: time 4 day
MIA PaCa-2 [9] = test: Induction of cell arrest in human MIA PaCa-2 cells assessed as late apoptotic cells at 100 nM measured after 4 days by Annexin V-FITC and propidium iodide (PI) staining based assay (reference value: 3.23%); format: functional; settings: time 4 day
MIA PaCa-2 [10] = test: Induction of cell arrest in human MIA PaCa-2 cells assessed as viable cells at 500 nM measured after 4 days by Annexin V-FITC and propidium iodide (PI) staining based assay (reference value: 94.9%); format: functional; settings: MIA PaCa-2, 96 h, time 4 day, read-out: Activity
CAPAN-1 = test: Antiproliferative activity against human CAPAN-1 cells assessed as cell viability measured after 168 hrs incubation by SRB assay; format: functional, cell-based; settings: CAPAN-1, 168 h
MIA PaCa-2 [11] = test: Inhibition of mitochondria coded ubiquinone oxidoreductase core subunit 1 (ND I) transcript level in human MIA PaCa-2 cells measured after 12 to 36 hrs of compound removal by RT-qPCR analysis; format: functional; settings: time 12-36 hrs
[12] = Toxicity in BALB/c mouse xenografted with human MIA PaCa-2 cells assessed as pathological change in spleen at 25 to 100 mg/kg, iv once daily for 25 consecutive day after 2 weeks of cells injection by H and E staining based optical microscopic analysis; format: organism-based; settings: in vivo, 336 h, dose 25-100 mg/kg
MIA PaCa-2 [13] = test: Antitumor activity against human MIA PaCa-2 cells xenografted in BALB/c nude mouse assessed as reduction in Ki67 protein expression at 25 to 100 mg/kg, iv once daily for 25 consecutive day after 2 weeks of cells injection by immunohistochemical analysis; format: functional, organism-based; settings: dose 25-100 mg/kg
MIA PaCa-2 [14] = test: Induction of cell arrest in human MIA PaCa-2 cells assessed as accumulation of cells at S phase at 50 nM measured after 96 hrs by PI staining based flow cytometry (reference value: 16.8%); format: functional
MIA PaCa-2 [15] = test: Reduction in maximal oxygen consumption rate (OCR) in human MIA PaCa-2 cells incubated for 168 hrs; format: functional, cell-based; settings: dose 1-200 nM
[16] = Antiproliferative activity against human […] cells assessed as cell viability measured after 168 hrs incubation by SRB assay; format: functional, cell-based
MIA PaCa-2 [17] = test: Effect on extracellular acidification rate (ECAR) in human MIA PaCa-2 cells at 1 to 200 nM incubated for 168 hrs; format: functional, cell-based; settings: dose 1-200 nM
MIA PaCa-2 [18] = test: Induction of intracellular ROS generation in human MIA PaCa-2 cells at 0.1 to 5 uM incubated for 96 hrs by DCFH-DA staining based flow cytometry; format: functional, cell-based; settings: dose 0.1-5 µM
[19] = Toxicity in BALB/c mouse xenografted with human MIA PaCa-2 cells assessed as change in body weight at 25 to 100 mg/kg, iv once daily for 25 consecutive day after 2 weeks of cells injection; format: organism-based; settings: in vivo, 600 h, dose 25-100 mg/kg, time 25 day
MIA PaCa-2 [20] = test: Induction of cell arrest in human MIA PaCa-2 cells assessed as late apoptotic cells at 500 nM measured after 4 days by Annexin V-FITC and propidium iodide (PI) staining based assay (reference value: 3.23%); format: functional; settings: time 4 day
[21] = target: DNA-directed RNA polymerase, mitochondrial (Homo sapiens) (UniProt O00411); test: Thermal stabilization of human POLRMT in human MIA PaCa-2 cells assessed as melting temperature at 100 uM measured after 30 mins incubation by Wester blot analysis (reference value: 42 degreeC); format: cell-based
DNA-directed RNA polymerase, mitochondrial (Homo sapiens), sequence (O00411 whole entry): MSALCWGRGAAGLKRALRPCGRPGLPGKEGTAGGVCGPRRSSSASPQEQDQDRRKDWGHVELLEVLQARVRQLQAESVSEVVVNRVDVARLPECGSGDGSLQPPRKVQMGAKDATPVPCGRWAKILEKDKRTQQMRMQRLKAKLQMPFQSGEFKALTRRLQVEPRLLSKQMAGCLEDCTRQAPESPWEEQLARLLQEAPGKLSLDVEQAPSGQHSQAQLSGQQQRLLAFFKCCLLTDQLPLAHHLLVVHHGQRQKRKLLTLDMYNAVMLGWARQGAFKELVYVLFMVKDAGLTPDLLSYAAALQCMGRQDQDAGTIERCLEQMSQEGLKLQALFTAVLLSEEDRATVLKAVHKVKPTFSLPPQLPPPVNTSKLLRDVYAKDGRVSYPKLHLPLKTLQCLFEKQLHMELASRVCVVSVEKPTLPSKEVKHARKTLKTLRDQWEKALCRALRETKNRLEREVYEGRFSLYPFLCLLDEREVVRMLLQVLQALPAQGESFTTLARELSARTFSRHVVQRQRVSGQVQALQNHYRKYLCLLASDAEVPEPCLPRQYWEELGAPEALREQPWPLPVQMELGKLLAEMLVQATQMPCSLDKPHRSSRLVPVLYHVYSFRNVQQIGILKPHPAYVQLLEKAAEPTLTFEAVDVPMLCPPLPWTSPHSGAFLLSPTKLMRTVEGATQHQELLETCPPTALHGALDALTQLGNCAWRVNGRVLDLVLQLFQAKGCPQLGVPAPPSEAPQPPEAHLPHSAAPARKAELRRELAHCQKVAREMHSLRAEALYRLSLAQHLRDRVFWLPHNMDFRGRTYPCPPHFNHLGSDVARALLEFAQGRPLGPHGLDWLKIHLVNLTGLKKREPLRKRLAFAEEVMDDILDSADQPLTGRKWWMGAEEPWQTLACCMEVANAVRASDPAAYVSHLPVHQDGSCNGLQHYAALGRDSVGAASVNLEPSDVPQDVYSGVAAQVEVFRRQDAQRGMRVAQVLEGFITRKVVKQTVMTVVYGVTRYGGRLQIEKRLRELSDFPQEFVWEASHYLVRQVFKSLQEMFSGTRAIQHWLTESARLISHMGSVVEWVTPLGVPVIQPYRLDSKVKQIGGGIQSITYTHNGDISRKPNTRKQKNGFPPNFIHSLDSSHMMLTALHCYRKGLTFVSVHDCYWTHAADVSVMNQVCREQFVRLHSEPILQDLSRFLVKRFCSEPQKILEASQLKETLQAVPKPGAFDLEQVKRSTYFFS

MIA PaCa-2 [22] = test: Induction of cell arrest in human MIA PaCa-2 cells assessed as viable cells at 25 nM measured after 4 days by Annexin V-FITC and propidium iodide (PI) staining based assay (reference value: 94.9%); format: functional; settings: MIA PaCa-2, 96 h, time 4 day, read-out: Activity
MIA PaCa-2 [23] = test: Induction of cell arrest in human MIA PaCa-2 cells assessed as accumulation of cells at G2 phase at 50 nM measured after 96 hrs by PI staining based flow cytometry (reference value: 11.2%); format: functional
MIA PaCa-2 [24] = test: Induction of cell arrest in human MIA PaCa-2 cells assessed as early apoptotic cells at 100 nM measured after 4 days by Annexin V-FITC and propidium iodide (PI) staining based assay (reference value: 1.07%); format: functional; settings: time 4 day
MIA PaCa-2 [25] = test: Induction of cell arrest in human MIA PaCa-2 cells assessed as accumulation of cells at G1 phase at 500 nM measured after 96 hrs by PI staining based flow cytometry (reference value: 64%); format: functional
[26] = Toxicity in BALB/c mouse xenografted with human MIA PaCa-2 cells assessed as pathological change in lung at 25 to 100 mg/kg, iv once daily for 25 consecutive day after 2 weeks of cells injection by H and E staining based optical microscopic analysis; format: organism-based; settings: in vivo, 336 h, dose 25-100 mg/kg
MIA PaCa-2 [27] = test: Induction of cell arrest in human MIA PaCa-2 cells assessed as early apoptotic cells at 50 nM measured after 4 days by Annexin V-FITC and propidium iodide (PI) staining based assay (reference value: 1.07%); format: functional; settings: time 4 day
MIA PaCa-2 [28] = test: In vivo antitumor activity against human MIA PaCa-2 cells xenografted in BALB/c mouse assessed as reduction in tumor weight at 100 mg/kg, iv once daily for 25 consecutive day after 2 weeks of cells injection relative to control; format: functional; settings: MIA PaCa-2, 600 h, time 25 day
MIA PaCa-2 [29] = test: Inhibition of RNA pol II in human MIA PaCa-2 cells assessed as effect on 25S RNA level at 0.1 to 1 uM measured after 12 hrs by RT-qPCR analysis; format: cell-based; settings: dose 0.1-1 µM

Tm [21]: 57 °C
SMILES: CCN(CC)C(=O)[C@@H](C)Oc1cc2oc(=O)cc(-c3ccccc3C)c2cc1F
inhibition in vivo at 25 mg/kg (MIA PaCa-2 [1]): 45.2%
Activity (MIA PaCa-2 [2]): 0.94%
inhibition (MIA PaCa-2 [3]): Active
Activity (MIA PaCa-2 [4]): 1.28%
Activity (MIA PaCa-2 [5]): 3.94%
Activity (MIA PaCa-2 [6]): 62.4%
viability at 0.05 µM (MIA PaCa-2 [7]): 94.1%
Activity (MIA PaCa-2 [8]): 1.4%
Activity (MIA PaCa-2 [9]): 3.61%
viability at 0.5 µM (MIA PaCa-2 [10]): 94.3%
IC50 (CAPAN-1): 0.404 µM
inhibition (MIA PaCa-2 [11]): Active
Activity [12]: Non-Toxic
Activity (MIA PaCa-2 [13]): Active
Activity (MIA PaCa-2 [14]): 15.4%
Activity (MIA PaCa-2 [15]): Dose-Dependent Effect
IC50 [16]: 0.004 µM
Activity (MIA PaCa-2 [17]): inactive
Activity (MIA PaCa-2 [18]): inactive
Activity [19]: Non-Toxic
Activity (MIA PaCa-2 [20]): 3.69%
viability at 0.025 µM (MIA PaCa-2 [22]): 94.5%
Activity (MIA PaCa-2 [23]): 10.4%
Activity (MIA PaCa-2 [24]): 0.57%
Activity (MIA PaCa-2 [25]): 63.4%
Activity [26]: Non-Toxic
Activity (MIA PaCa-2 [27]): 1.08%
inhibition in vivo at 100 mg/kg (MIA PaCa-2 [28]): 64.5%
inhibition (MIA PaCa-2 [29]): inactive
